As a reminder, the EC50 is the concentration giving half of the maximal effect.

24 molecules from patent US10202404B2, “Polycyclic pyridone derivative having integrase inhibitory activity” (Shionogi & Co., Ltd., priority 2014, dated 2019) can be followed below.

One assay has as its system HIV. Nature of the assay: Anti-HIV activity (MT-4 cells, MTT). It is filed as cell-based. Particulars: 50% HIV inhibition concentration; MT-4 cells infected with HIV, incubated 4 days, MTT readout. How it is done:
Previously, a series of two-fold dilution on test samples were carried out in a 96-well plate (50 μL/well). Two plates were made for measuring anti-HIV activity and measuring cytotoxicity. For each agent, measurement in duplicate was carried out. An MT-4 cell suspension of 2.5×10^5/mL was dispensed at 100 μL/well onto the 96-well plate containing the test samples. An HIV virus solution was dispensed at 50 μL/well onto the 96-well plate containing the test samples and the cell. To the plate for measuring cytotoxicity, a culture solution was dispensed at 50 μL/well. It was mixed by a plate mixer, and then incubated in a CO2 incubator for 4 days. […] Thirty microliters of a MTT (3-(4,5-dimethylthiazol-2-yl)-2,5-diphenyltetrazolium bromide) solution was dispensed to each well.
A reaction was allowed to occur in a CO2 incubator for an hour. From each well, 150 μL of the supernatant was removed such that cells are not sucked. One-hundred and fifty microliters of a cell lysis solution was added thereto, and then it was mixed well by a plate mixer until the whole cells are lysed. The mixed 96-well plates were measured by a microplate reader at two wavelengths, 560 nm/690 nm. Based on the following calculation formula, 50% HIV inhibition concentration (EC50) was calculated. EC50=10Z Z=(50%−Low %)/(High %−Low %)×{log(High conc.)−log(Low conc.)}+log(Low conc.) Based on the following calculation formula, 50% cytotoxic concentration (CC50) was calculated. CC50=10Z Z=(50%−Low %)/(High %−Low %)×{log(High conc.)−log(Low conc.)}+log(Low conc.) Based on the following calculation formula, selectivity index (ST) was calculated. SI=CC50/EC50 (Result)
In turn, `C[C@@H]1CCO[C@H]2Cn3cc(-c4cnc(Cc5ccc(F)cc5F)s4)c(=O)c(O)c3C(=O)N12` [Compound A-40] registered an EC50 of 11 nM.
Same read-out and setting: in the case of `C[C@@H]1CCO[C@H]2Cn3cc(-c4nnc(Cc5ccc(F)cc5F)[nH]4)c(=O)c(O)c3C(=O)N12` [Compound A-52] it was 18 nM; in that of `O=C1c2c(O)c(=O)c(-c3nnc(Cc4cccc(Cl)c4F)s3)cn2CN2CCCCN12` [Compound C-14], 2.2 nM.

The assay is the same for the next values; noted with them: Human immunodeficiency virus 1, MT4, 96 h; 50% HIV inhibition concentration; MT-4 cells infected with HIV, incubated 4 days, MTT readout.
`COCCN1Cn2cc(-c3nnc(Cc4ccc(F)cc4F)s3)c(=O)c(O)c2C(=O)N1CCOC` [Compound C-27]: it took 2 nM to reach a half-maximal effect (EC50).
As for `O=C1c2c(O)c(=O)c(-c3nnc(Cc4cccc(Cl)c4F)s3)cn2C[C@@H]2N1C[C@H]1CCCN12` [Compound A-54], the EC50 was found to be 1.6 nM.
The same measure, in the same setting: in the case of `C[C@@H]1CCN2C(=O)c3c(O)c(=O)c(-c4ncc(Cc5cccc(Cl)c5F)s4)cn3C[C@@H]2O1` [Compound A-5] it was 8 nM; in that of `C[C@@H]1CCO[C@H]2Cn3cc(-c4nnc(Cc5ccc(F)c(Cl)c5F)s4)c(=O)c(O)c3C(=O)N12` [Compound A-26], 3.8 nM.
Still for that read-out and setting: in the case of `O=C1c2c(O)c(=O)c(-c3nnc(Cc4ccc(F)cc4F)s3)cn2C[C@@H]2[C@@H]3C[C@@H]3CN12` [Compound B-9] it was 2 nM; in that of `C[C@@H]1CCO[C@H]2Cn3cc(-c4nnc(Cc5c(F)cc(F)cc5F)s4)c(=O)c(O)c3C(=O)N12` [Compound A-23], 2.6 nM; in that of `C[C@@H]1CCO[C@H]2Cn3cc(-c4nnc(Cc5cccc(Cl)c5F)s4)c(=O)c(O)c3C(=O)N12` [Compound A-17], 2.3 nM.
In turn, `COCCN1CC[C@H](C)N2C(=O)c3c(O)c(=O)c(-c4nnc(Cc5ccc(F)cc5F)s4)cn3C[C@@H]12` [Compound A-61] showed a concentration for a half-maximal effect (EC50) of 4.1 nM.
`O=C1c2c(O)c(=O)c(-c3ncc(Cc4cccc(Cl)c4F)s3)cn2C[C@H]2CCCCN12` [Compound B-18] showed an EC50 of 14 nM.
The same measure, in the same setting: in the case of `C[C@H]1CCO[C@@H]2Cn3cc(-c4ncc(Cc5ccc(F)cc5F)s4)c(=O)c(O)c3C(=O)N12` [Compound A-10] it was 4.4 nM.
On the same count and under the same terms, in the case of `O=C1c2c(O)c(=O)c(-c3ncc(Cc4cccc(Cl)c4F)s3)cn2C[C@H]2CCCN12` [Compound B-17] it was 5.3 nM; in that of `CCN1Cn2cc(-c3nnc(Cc4ccc(F)cc4F)s3)c(=O)c(O)c2C(=O)N1CC` [Compound C-21], 1.5 nM.
Same read-out and setting: in the case of `C[C@@H]1CCO[C@H]2Cn3cc(-c4nnc(Cc5ccc(F)cc5F)s4)c(=O)c(OCOC(=O)C(C)(C)C)c3C(=O)N12` [Compound D-3] it was 4.8 nM; in that of `O=C1c2c(O)c(=O)c(-c3nnc(Cc4cccc(Cl)c4F)s3)cn2C[C@H]2CCCN12` [Compound B-4], 5.5 nM; in that of `C[C@H]1CO[C@@H]2Cn3cc(-c4ncc(Cc5ccc(F)cc5F)s4)c(=O)c(O)c3C(=O)N12` [Compound A-6], 1.9 nM.
For `Cc1nc(-c2cn3c(c(O)c2=O)C(=O)N2[C@H](C)CCO[C@H]2C3)sc1Cc1ccc(F)cc1F` [Compound A-45], the half-maximal effective concentration (EC50) came out at 4.1 nM.
Still for that read-out and setting: in the case of `C[C@@H]1CCO[C@H]2Cn3cc(-c4nnc(C(F)(F)c5cccc(Cl)c5F)s4)c(=O)c(O)c3C(=O)N12` [Compound A-43] it was 3.6 nM.
The same measure, in the same setting: in the case of `C[C@@H]1CCO[C@H]2Cn3cc(-c4nnc(Cc5cc(C(F)(F)F)cc(Cl)c5F)s4)c(=O)c(O)c3C(=O)N12` [Compound A-34] it was 13 nM.
Same read-out and setting: in the case of `CCN1CN([C@H](C)C(F)(F)F)C(=O)c2c(O)c(=O)c(-c3nnc(Cc4ccc(F)cc4F)s3)cn21` [Compound C-5] it was 3.4 nM; in that of `C[C@H]1[C@H]2CCCN2[C@@H]2Cn3cc(-c4nnc(Cc5ccc(F)cc5F)s4)c(=O)c(O)c3C(=O)N12` [Compound A-62], 1.6 nM; in that of `C[C@H]1CCO[C@@H]2Cn3cc(-c4ncc(Cc5cccc(Cl)c5F)s4)c(=O)c(O)c3C(=O)N12` [Compound A-11], 8.8 nM.
